# Measurements from patent US8362065B2, “Carbazole carboxamide compounds useful as kinase inhibitors” (Bristol-Myers Squibb Company, priority 2008, dated 2013).
# Key:
# [1] = tested on: Ramos RA1 B cells; experiment: Ramos FLIPR Assay; format: cell-based; details: goat anti-human IgM 2.5 μg/mL, peak intracellular calcium, read-out: IC50 for Inhibition of Ramos FLIPR assay
# [2] = molecular target: T1, human recombinant Btk (Homo sapiens, UniProt Q06187); experiment: Human Recombinant Btk Enzyme Assay; format: biochemical; details: human recombinant Btk 1 nM, ATP 20 μM, 60 min at room temperature; read-out: IC50 for Inhibition of Btk
# T1 construct: purchased Invitrogen Corporation
# T1 sequence (Q06187 whole entry): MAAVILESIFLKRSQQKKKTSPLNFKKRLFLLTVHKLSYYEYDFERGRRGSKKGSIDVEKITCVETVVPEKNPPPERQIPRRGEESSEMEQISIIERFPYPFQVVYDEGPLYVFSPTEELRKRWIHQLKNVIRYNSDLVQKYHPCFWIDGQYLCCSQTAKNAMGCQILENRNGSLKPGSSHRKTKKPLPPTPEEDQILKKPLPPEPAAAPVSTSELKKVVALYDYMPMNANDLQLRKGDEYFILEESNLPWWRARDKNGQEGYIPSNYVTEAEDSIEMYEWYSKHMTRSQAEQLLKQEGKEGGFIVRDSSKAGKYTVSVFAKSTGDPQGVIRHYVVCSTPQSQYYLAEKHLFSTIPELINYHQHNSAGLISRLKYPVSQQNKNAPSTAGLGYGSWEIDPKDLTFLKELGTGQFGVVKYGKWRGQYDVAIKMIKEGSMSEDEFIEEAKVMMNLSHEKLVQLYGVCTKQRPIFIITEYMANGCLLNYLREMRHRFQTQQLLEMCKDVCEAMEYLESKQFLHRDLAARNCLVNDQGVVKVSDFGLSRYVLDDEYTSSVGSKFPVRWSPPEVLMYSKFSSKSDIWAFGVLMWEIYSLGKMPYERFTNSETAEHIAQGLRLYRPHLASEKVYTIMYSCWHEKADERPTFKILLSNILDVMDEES
# [3] = tested on: anti-KLH IgG response in BALB/c mice; experiment: KLH Antigen Challenge and Antibody Measurement; format: in vivo, mouse; details: female BALB/c mice, serum 14 days post-immunization
# Description: KLH Antigen Challenge and Antibody Measurement
# Female BALB/c mice (6-8 weeks old) were immunized intraperitoneally (IP) with 250 μg keyhole limit hemocyanin (KLH) (Pierce, Rockford, Ill.) in phosphate-buffered saline (PBS). Mice in appropriate groups were dosed as indicated. Blood was collected 14 days post-immunization, serum was separated and analyzed for anti-KLH IgG titers by ELISA. Briefly, 96 well plates were coated with KLH in PBS, blocked, and serial dilutions of test serum samples were added.
Compound,IC50 [1] [nM],IC50 [2] [nM],inhibited the anti-KLH IgG response ([3]; 10 mg/kg twice daily) [%],inhibited the anti-KLH IgG response ([3]; 30 mg/kg twice daily) [%]
Cc1c(-c2ccc(C(N)=O)c3[nH]c4cc(C(O)CO)ccc4c23)cccc1-n1cnc2ccc(Cl)cc2c1=O (centres unmarked) [Example 70-14],14,0.9,–,–
Cc1c(-c2ccc(C(N)=O)c3[nH]c4cc(C(C)(C)O)ccc4c23)cccc1N1Cc2ccc(F)cc2C1=O [Example 76-15],48,2.4,29,56
COC(CO)c1ccc2c(c1)[nH]c1c(C(N)=O)ccc(-c3cccc(N4Cc5ccc(C)cc5C4=O)c3C)c12 (racemic) [Example 75-3],16,1.1,–,–
"CC(=O)NCc1ccc2c(c1)[nH]c1c(C(N)=O)ccc(-c3cccc(-n4cnc5ccc(F)cc5c4=O)c3C)c12 [Example 38-3, 7-(acetamidomethyl)-4-(3-(6-fluoro-4-oxoquinazolin-3(4H)-yl)-2-methylphenyl)-9H-carbazole-1-carboxamide]",23,1.4,–,–
Cc1c(-c2ccc(C(N)=O)c3[nH]c4cc(C(O)CO)ccc4c23)cccc1-n1cnc2ccc(F)cc2c1=O (centres unmarked) [Example 70-13],11,0.7,–,–
"Cc1c(Nc2ncnc3cc(Cl)ccc23)cccc1-c1ccc(C(N)=O)c2[nH]c3cc(C(=O)N4CCN(C)CC4)ccc3c12 [Example 11-6, 4-(3-(7-chloroquinazolin-4-ylamino)-2-methylphenyl)-7-(4-methylpiperazine-1-carbonyl)-9H-carbazole-1-carboxamide]",280,–,–,–
Cc1c(-c2ccc(C(N)=O)c3[nH]c4cc(N5CCOC5=O)ccc4c23)cccc1N1Cc2ccccc2C1=O [Example 66-10],270,–,–,–

# Continued, in another order:
IC50 [1] [nM],IC50 [2] [nM],Compound,inhibited the anti-KLH IgG response ([3]; 10 mg/kg twice daily) [%],inhibited the anti-KLH IgG response ([3]; 30 mg/kg twice daily) [%]
17,1.4,Cc1c(-c2ccc(C(N)=O)c3[nH]c4cc(C(C)(C)O)ccc4c23)cccc1-n1cnc2c(F)cccc2c1=O [Example 76-51],–,–
17,1.9,"COC1=CC(=O)N(c2cccc(-c3ccc(C(N)=O)c4[nH]c5cc(C(C)(C)O)ccc5c34)c2C)C1 [Example 82-1, 7-(2-hydroxypropan-2-yl)-4-(3-(4-methoxy-2-oxo-2,5-dihydro-1H-pyrrol-1-yl)-2-methylphenyl)-9H-carbazole-1-carboxamide]",–,–
38,3.2,"COc1ccc2c(c1)CN(c1cccc(-c3ccc(C(N)=O)c4[nH]c5cc(C(C)(C)O)ccc5c34)c1C)C2=O [Example 76-32, 7-(2-hydroxypropan-2-yl)-4-(3-(5-methoxy-1-oxoisoindolin-2-yl)-2-methylphenyl)-9H-carbazole-1-carboxamide]",–,–
